Laboratory results: paper PMC6271131, “Inhibitory Effects of Colocasia esculenta (L.) Schott Constituents on Aldose Reductase” (Molecules, 2014)
In brackets after ≈: the same amount, converted by molar mass. Several values for one entry are separate records, joined by “and”; a condition that tells them apart may be missing. Identical values can stand only once. Like-named read-outs stand apart in the source and are kept apart here.

How the values were obtained:
[1] = ABTS^+ radical assay (antioxidant)
Description: The method of Re et al., [39] was used with slight modifications. ABTS diammonium salt (2 mM) and potassium persulfate (3.5 mM) were mixed, diluted in distilled water and kept in the dark at room temperature for 24 h before use. After addition of ABTS^+ solution to 10 µL of antioxidant compounds were recorded at after 10 min reaction. […] Trolox was used as positive control.

[2] = biological target: T1, rat lens aldose reductase (rAR) (Rattus norvegicus, UniProt P07943); test: Rat lens aldose reductase (rAR) inhibition, DL-glyceraldehyde substrate, NADPH decrease at 340 nm; format: biochemical; details: for IC50: Table 2 experiment
T1 construct: The rat lens homogenate was prepared according to the method of Hayman and Kinoshita with some modifications; from tissue; host or cells: lenses of Sprague-Dawley rats (homogenate supernatant)
Description: The rat lens homogenate was prepared according to the method of Hayman and Kinoshita with some modifications. Non-cataractous transparent lenses were pooled and homogenate was prepared in 0.1 M phosphate buffer saline (pH 6.2). After centrifugation at 10,000 rpm for 20 min in a refrigerated centrifuge, the supernatant, which was then collected and as the rAR, all procedures were carried out at 4 °C.
Each 1.0 mL cuvette contained equal units of the enzyme, 0.10 M sodium phosphate buffer (pH 6.2), 0.3 mM NADPH, with or without 10 mM of the substrate and an inhibitor [10, 36].

[3] = biological target: T2, recombinant human aldose reductase (rhAR) (Homo sapiens, UniProt P15121); test: Kinetic analysis of aldose reductase inhibition (Lineweaver-Burk plots); format: biochemical; details: for type of inhibition: Lineweaver-Burk plots, Km unchanged, Vmax decreased; for Ki: from secondary Lineweaver-Burk plots, DL-glyceraldehyde 0.1-1 mM, read-out: inhibitory constant (Ki)
T2 construct: purchased Wako Pure Chemical Industries (Osaka, Japan)
Description: Reaction mixtures consisted of 0.1 M potassium phosphate, 0.16 mM NADPH, […] of recombinant human aldose reductase (rhAR) with varied concentrations of substrate DL-glyceraldehyde and AR inhibitor in a total volume of 200 µL. Concentrations were ranged from 0.1 to 1 mM for DL-glyceraldehyde, from 0.1 to 1 mM for active compound. Recombinant human aldose reductase activity was assayed spectrophotometrically by measuring the decrease in absorption of NADPH at 340 nm after substrate addition using a Bio Tek Power Wave XS spectrophotometer (Bio Tek Instruments, Winooski, VT, USA).

rat erythrocyte = test: Galactitol accumulation in rat erythrocytes incubated with galactose; format: cell-based; details: 30 mM galactose; for Rat Erythrocyte Galactitol Content: 5 µg/mL compound, control 86.70 ± 1.61; for decrease of galactitol accumulation in rat erythrocyte: 5 µg/mL
Description: Blood sample was collected in heparin containing polypropylene tube from 10-week-old male rats. For sugar and sugar alcohol analysis, erythrocytes from heparinized blood were separated from the plasma and buffy coat by centrifuging at 2000× g for 10 min. The cells were washed thrice with normal saline (0.9% NaCl) at 4 °C. In the final washing, the cells were centrifuged at 2000× g for 10 min to obtain a consistently packed cell preparation. The packed cells (1 mL) were then incubated in a Krebs-Ringer bicarbonate buffer (pH 7.4) containing 30 mM galactose in the presence or absence of samples at 37 °C in 5% CO2 for 3 h. The erythrocytes were washed with cold saline by centrifuging at 2000× g for 10 min, precipitated by adding 6% of cold perchloric acid (3 mL), and centrifuged again at 2000× g for 10 min. The supernatant was neutralized with 2.5 M K2CO3 at 4 °C and used for galactitol determination. HPLC analysis for sugar and sugar alcohol in blood was performed with this supernatant of red blood cell homogenate after being benzoylated.

rat lenses = test: Galactitol accumulation in cultured isolated rat lenses (ex vivo); format: cell-based; details: for Galactitol Content µg/lens Wet Weight (g): 5 µg/mL compound, control 250.47 ± 5.01; for inhibition at 5 µg/mL: Rattus norvegicus, 144 h, read-out: inhibition of galactitol accumulation in isolated rat lenses; for effect on polyol accumulation in rat lenses: conclusion statement
Description: Lenses isolated from 10-week-old male rats were cultured for 6 days in TC-199 medium that contained 15% fetal bovine serum 100 units/mL penicillin and 0.1 mg/mL streptomycin under sterile conditions in an atmosphere of 5% CO2 and 95% air at 37 °C. Samples were dissolved in dimethyl sulfoxide. The lenses were divided into five groups and cultured in medium containing 5 mM glucose, 30 mM galactose and rosmarinic acid or caffeic acid ethylene ester. Each lens was placed in well containing 1.0 mL of medium. Galactitol was determined by HPLC after its derivatization by reaction with benzoic acid to a fluorescent compound [37].

[4] = Table 2, read-out: Inhibition (%) of rAR
[5] = read-out: IC50 (rAR), isolated constituents (converted)
[6] = 5 µg/mL, 30 mM galactose, 6 days
[7] = Table 1, read-out: Aldose Reductase Inhibition (%)

Compound	inhibition at 0.5 µg/mL [2, 4] [%]	inhibition at 1 µg/mL [2, 4] [%]	inhibition at 5 µg/mL ([2]; Table 2) [%]	IC50 ([1]; Table 5) [µM]	IC50 (ABTS^+) ([1]; Table 5) [µg/mL]	Inhibition (%) of ABTS^+ ([1]; Table 5, 1.67 µg/mL) [%]	Inhibition (%) of ABTS^+ ([1]; Table 5, 3.33 µg/mL) [%]	Inhibition (%) of ABTS^+ ([1]; Table 5, 8.33 µg/mL) [%]	IC50 [2, 5]	Inhibition (%) of ABTS^+ ([1]; Table 5, 16.67 µg/mL) [%]	inhibition at 10 µg/mL ([2]; Table 2) [%]	also measured
Cc1c(C)c2c(c(C)c1O)CCC(C)(C(=O)O)O2 (stereo not drawn) [Trolox, reference compound]	–	–	–	–	–	–	–	–	–	–	–	IC50 ([1]; Table 4): 11.49 ± 0.04 µM; IC50 (ABTS^+) ([1]; Table 4): 2.87 ± 0.01 µg/mL (≈ 11.5 µM); Inhibition (%) of ABTS^+ ([1]; Table 4, 1.67 µg/mL): 27.07 ± 1.15%; Inhibition (%) of ABTS^+ ([1]; Table 4, 3.33 µg/mL): 57.40 ± 2.03%; Inhibition (%) of ABTS^+ ([1]; Table 4, 8.33 µg/mL): 92.92 ± 0.06%
O=C(/C=C/c1ccc(O)c(O)c1)O[C@H](Cc1ccc(O)c(O)c1)C(=O)O [Compound 8, rosmarinic acid]	18.3 ± 0.19	62.79 ± 0.6	87.33 ± 0.87	19.2 ± 1.69	6.91 ± 0.61 (≈ 19.2 µM)	16.20 ± 3.85	23.61 ± 2.27	60.25 ± 4.66	–	–	–	–
C[C@@H]1O[C@@H](OC[C@H]2O[C@@H](Oc3cc(O)c4c(=O)cc(-c5ccc(O)c(O)c5)oc4c3)[C@H](O)[C@@H](O)[C@@H]2O)[C@H](O)[C@H](O)[C@H]1O [Compound 7, luteolin-7-O-rutinoside]	29.9 ± 0.3	40.31 ± 0.4	72.7 ± 0.73	15.8 ± 0.8	9.38 ± 0.47 (≈ 15.8 µM)	–	21.44 ± 1.46	49.55 ± 3.91	2.59 µM	79.82 ± 0.67	–	–
O=c1cc(-c2ccc(O)c(O)c2)oc2cc(O)c([C@@H]3O[C@H](CO)[C@@H](O)[C@H](O)[C@H]3O)c(O)c12 [Compound 3, isoorientin]	37.23 ± 0.37	57.6 ± 0.58	77.73 ± 0.77	14.6 ± 1.18	6.53 ± 0.53 (≈ 14.6 µM)	17.87 ± 3.08	31.69 ± 4.94	60.92 ± 2.81	–	–	–	IC50 ([2]; IC50 (rAR), isolated constituents): 1.92 µM; type of inhibition [3]: noncompetitive inhibitors; Ki [3]: 5.88 µM; Rat Erythrocyte Galactitol Content (rat erythrocyte): 56.18 ± 1.00 µM; decrease of galactitol accumulation in rat erythrocyte (rat erythrocyte): 35.2%; Galactitol Content µg/lens Wet Weight (g) (rat lenses; 30 mM galactose, 6 days): 243.14 ± 4.71 µg/lens Wet Weight (g); inhibition at 5 µg/mL (rat lenses; [6]): 2.7%; effect on polyol accumulation in rat lenses (rat lenses): prevented the accumulation of sorbitol in rat lenses
COc1cc(C=CC(=O)OC2OC(CO)C(O)C(O)C2O)ccc1O [Compound 9, 1-O-feruloyl-D-glucoside]	–	–	–	37.4 ± 0.64	13.31 ± 0.23 (≈ 37.4 µM)	–	13.51 ± 1.62	35.36 ± 1.54	–	59.10 ± 2.55	4.06 ± 0.4	–
N[C@@H](Cc1c[nH]c2ccccc12)C(=O)O [Compound 1, tryptophan]	–	–	–	–	–	–	–	–	–	37.51 ± 2.93	20 ± 2.01	–
O=c1cc(-c2ccc(O)c(O)c2)oc2c([C@@H]3O[C@H](CO)[C@@H](O)[C@H](O)[C@H]3O)c(O)cc(O)c12 [Compound 2, orientin]	35.3 ± 0.36	64.57 ± 0.52	94 ± 0.98	12.5 ± 0.95	5.59 ± 0.42 (≈ 12.5 µM)	17.56 ± 2.21	31.76 ± 3.19	72.55 ± 4.10	1.65 µM	–	–	type of inhibition [3]: noncompetitive inhibitors; Ki [3]: 3.23 µM; Rat Erythrocyte Galactitol Content (rat erythrocyte): 72.72 ± 0.98 µM; decrease of galactitol accumulation in rat erythrocyte (rat erythrocyte): 16.1%; Galactitol Content µg/lens Wet Weight (g) (rat lenses; 30 mM galactose, 6 days): 227.89 ± 4.52 µg/lens Wet Weight (g); inhibition at 5 µg/mL (rat lenses): 9.1%; effect on polyol accumulation in rat lenses (rat lenses): prevented the accumulation of sorbitol in rat lenses
O=c1cc(-c2ccc(O)cc2)oc2cc(O)c([C@@H]3O[C@H](CO)[C@@H](O)[C@H](O)[C@H]3O)c(O)c12 [Compound 5, isovitexin]	–	23.3 ± 0.25	60.3 ± 0.61	–	–	–	–	–	7.35 µM and 7.36 µM	44.40 ± 4.91	76.59 ± 0.74	–
O=c1cc(-c2ccc(O)cc2)oc2c([C@@H]3O[C@H](CO)[C@@H](O)[C@H](O)[C@H]3O)c(O)cc(O)c12 [Compound 4, vitexin]	–	–	–	–	–	–	–	–	–	46.17 ± 2.65	48.5 ± 0.87	–
O=c1cc(-c2ccc(O)c(O)c2)oc2cc(O[C@@H]3O[C@H](CO)[C@@H](O)[C@H](O)[C@H]3O)cc(O)c12 [Compound 6, luteolin-7-O-glucoside]	–	19.1 ± 0.21	61.88 ± 0.6	17.8 ± 1.51	8.00 ± 0.68 (≈ 17.8 µM)	13.49 ± 1.09	22.66 ± 2.47	52.11 ± 3.98	7.47 µM	–	76.2 ± 0.77	–
O=c1c(O)c(-c2ccc(O)c(O)c2)oc2cc(O)cc(O)c12 [Quercetin, quercetin, reference compound]	26.3 ± 0.59	48.6 ± 1.44	81.14 ± 0.81	–	–	–	–	–	–	–	–	inhibition at 0.5 µg/mL [2, 7]: 31.62 ± 0.09%; inhibition at 1 µg/mL [2, 7]: 48.9 ± 0.51%; inhibition at 2.5 µg/mL [2, 7]: 69.6 ± 0.72%; Rat Erythrocyte Galactitol Content (rat erythrocyte): 45.17 ± 0.81 µM; decrease of galactitol accumulation in rat erythrocyte (rat erythrocyte): 47.9%; Galactitol Content µg/lens Wet Weight (g) (rat lenses; 30 mM galactose, 6 days): 241.07 ± 4.57 µg/lens Wet Weight (g); inhibition at 5 µg/mL (rat lenses; [6]): 3.8%; IC50 ([1]; Table 4): 3.2 ± 0.12 µM; IC50 (ABTS^+) ([1]; Table 4): 0.97 ± 0.04 µg/mL (≈ 3.21 µM); Inhibition (%) of ABTS^+ ([1]; Table 4, 0.33 µg/mL): 22.98 ± 3.55%; Inhibition (%) of ABTS^+ ([1]; Table 4, 0.83 µg/mL): 42.49 ± 3.39%; Inhibition (%) of ABTS^+ ([1]; Table 4, 1.67 µg/mL): 81.36 ± 1.75%
O=C(C=Cc1ccc(O)c(O)c1)OC1OC(CO)C(O)C(O)C1O [Compound 10, 1-O-caffeoyl-D-glucoside]	–	–	55.6 ± 0.78	23.5 ± 1.43	8.04 ± 0.49 (≈ 23.5 µM)	14.07 ± 0.39	29.84 ± 1.19	50.87 ± 1.30	14.1 µM	–	73.2 ± 0.99	inhibition at 2.5 µg/mL [2, 4]: 24.7 ± 0.36%
